# Measurements from patent US20240383904A1, “HETEROCYCLIC COMPOUNDS” (Hoffmann-La Roche Inc., priority 2021, published 2024).
# Target: T1, MAGL (Homo sapiens, UniProt Q99685)
# T1 sequence (Q99685 1-303): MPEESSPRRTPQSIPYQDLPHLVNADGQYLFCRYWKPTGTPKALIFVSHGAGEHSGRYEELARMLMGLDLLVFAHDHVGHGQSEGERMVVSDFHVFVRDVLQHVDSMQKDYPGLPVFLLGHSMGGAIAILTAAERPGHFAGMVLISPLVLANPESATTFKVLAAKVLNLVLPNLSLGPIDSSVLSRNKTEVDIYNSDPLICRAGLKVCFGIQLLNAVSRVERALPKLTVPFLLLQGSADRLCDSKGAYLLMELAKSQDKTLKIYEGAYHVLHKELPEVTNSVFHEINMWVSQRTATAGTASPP
# Test: 2-AG assay: MAGL inhibitory activity by hydrolysis of 2-arachidonoylglycerol to arachidonic acid, followed by mass spectrometry
# Format: biochemical
# Conditions: 15 min preincubation, 30 min reaction at RT, 8 μM 2-arachidonoylglycerol
row,SMILES,IC50
1,"O=C1CCC2(CN(C(=O)N3CC4(CC(Cn5ccc(C(F)(F)F)n5)C4)C3)C2)N1 [Example 225, 2-[6-[[3-(trifluoromethyl)pyrazol-1-yl]methyl]-2-azaspiro[3.3]heptane-2-carbonyl]-2,5-diazaspiro[3.4]octan-6-one]",17 nM
2,"O=C1NC2(CO1)CN(C(=O)N1CC3(CCN(Cc4cccc(S(=O)(=O)C(F)(F)F)c4)CC3)C1)C2 [Example 139, 2-[7-(3-triflylbenzyl)-2,7-diazaspiro[3.5]nonane-2-carbonyl]-7-oxa-2,5-diazaspiro[3.4]octan-6-one]",0.76 nM
3,"N#Cc1cc(C(F)(F)F)ncc1O[C@H]1CCC2(C1)CN(C(=O)N1CC3(COCC(=O)N3)C1)C2 [Example 214, 5-[[(6S)-2-(6-oxo-8-oxa-2,5-diazaspiro[3.5]nonane-2-carbonyl)-2-azaspiro[3.4]octan-6-yl]oxy]-2-(trifluoromethyl)pyridine-4-carbonitrile]",386 nM
4,"O=C1CCC2(CN(C(=O)N3CC4(CC(Cc5nccc(C(F)(F)F)n5)C4)C3)C2)N1 [Example 327, 2-[6-[[4-(trifluoromethyl)pyrimi-din-2-yl]methyl]-2-azaspiro[3.3]heptane-2-carbonyl]-2,5-diazaspiro[3.4]octan-6-one]",7.57 nM
5,"O=C1NC2(CO1)CN(C(=O)N1CC3(CC(c4cncc(F)c4)C3)C1)C2 [Example 126, 2-[6-(5-fluoro-3-pyridyl)-2-azaspiro[3.3]heptane-2-carbonyl]-7-oxa-2,5-diazaspiro[3.4]octan-6-one]",21.3 nM
6,"O=C1NC2(CO1)CN(C(=O)N1CC3(CCC(NS(=O)(=O)c4cccc(OC(F)(F)F)c4)CC3)C1)C2 [Example 114, N-[2-(6-keto-7-oxa-2,5-diazaspiro[3.4]octane-2-carbonyl)-2-azaspiro[3.5]nonan-7-yl]-3-(trifluoromethoxy)benzene-sulfonamide]",0.63 nM
7,O=C1CCC2(CN(C(=O)N3CC4(CC(Cc5cn(C6CC6)nc5C(F)(F)F)C4)C3)C2)N1 [Example 324],3.35 nM
8,"O=C1CCC2(CN(C(=O)N3CC4(CCN(Cc5ccc(C(F)(F)F)cn5)CC4)C3)C2)N1 [Example 146, 2-[7-[[5-(trifluoromethyl)-2-pyridyl]methyl]-2,7-diazaspiro[3.5]nonane-2-carbonyl]-2,5-diazaspiro[3.4]octan-6-one]",10.9 nM
9,"O=C1NC2(CO1)CN(C(=O)N1CC3(CCN(S(=O)(=O)c4ccc(C(F)(F)F)cc4F)CC3)C1)C2 [Example 189, 2-[7-[2-fluoro-4-(trifluoromethyl)phenyl]sulfonyl-2,7-diazaspiro[3.5]nonane-2-carbonyl]-7-oxa-2,5-diazaspiro[3.4]octan-6-one]",1.72 nM
10,"O=C1CCC2(CN(C(=O)N3CC4(CN(Cc5cn[nH]c5C(F)(F)F)C4)C3)C2)N1 [Example 316, 2-[6-[[5-(trifluoromethyl)-1H-pyrazol-4-yl]methyl]-2,6-diazaspiro[3.3]heptane-2-carbonyl]-2,5-diazaspiro[3.4]octan-6-one]",553 nM
11,"O=C1COCC2(CN(C(=O)N3CC4(CCC(Cc5cnc(C(F)(F)F)cn5)CC4)C3)C2)N1 [Example 226, 2-[7-[[5-(trifluoromethyl)pyrazin-2-yl]methyl]-2-azaspiro[3.5]nonane-2-carbonyl]-8-oxa-2,5-diazaspiro[3.5]nonan-6-one]",45.9 nM
12,"Cc1cc(C(F)F)n(CC2CC3(C2)CN(C(=O)N2CC4(COCC(=O)N4)C2)C3)n1 [Example 364, 2-[6-[[5-(difluoromethyl)-3-methyl-pyrazol-1-yl]methyl]-2-azaspiro[3.3]heptane-2-carbonyl]-8-oxa-2,5-diazaspiro[3.5]nonan-6-one]",27.2 nM
13,"CS(=O)(=O)c1ccc(CC2CCC3(C2)CN(C(=O)N2CC4(COC(=O)N4)C2)C3)cc1 (centres unmarked) [Example 77, 2-[6-(4-mesylbenzyl)-2-azaspiro[3.4]octane-2-carbonyl]-7-oxa-2,5-diazaspiro[3.4]octan-6-one]",0.91 nM
14,"O=C1COCC2(CN(C(=O)N3CC4(CC(Cc5cncc(F)c5)C4)C3)C2)N1 [Example 180, 2-[6-[(5-fluoro-3-pyridyl)methyl]-2-azaspiro[3.3]heptane-2-carbonyl]-8-oxa-2,5-diazaspiro[3.5]nonan-6-one]",202 nM
15,"Cn1cc(OC2CC3(C2)CN(C(=O)N2CC4(CCC(=O)N4)C2)C3)c(C(F)(F)F)n1 [Example 310, 2-[6-[1-methyl-3-(trifluoromethyl)pyrazol-4-yl]oxy-2-azaspiro[3.3]heptane-2-carbonyl]-2,5-diazaspiro[3.4]octan-6-one]",76.9 nM
16,CS(=O)(=O)c1cc(C(F)(F)F)ccc1C1CC2(C1)CN(C(=O)N1CC3(COC(=O)N3)C1)C2 [Example 117],1.96 nM
17,"CS(=O)(=O)c1cc(CC2CC3(C2)CN(C(=O)N2CC4(CCCC(=O)N4)C2)C3)cc(C(F)(F)F)c1 [Example 268, 2-[6-[[3-methylsulfonyl-5-(trifluoromethyl)phenyl]methyl]-2-azaspiro[3.3]heptane-2-carbonyl]-2,5-diazaspiro[3.5]nonan-6-one]",301 nM
18,"O=C1CCC2(CN(C(=O)N3CC4(CC[C@@H](Cc5ccc(S(=O)(=O)C(F)(F)F)cc5)C4)C3)C2)N1 [Example 222, 2-[(6S)-6-[[4-(trifluoromethylsulfonyl)phenyl]methyl]-2-azaspiro[3.4]octane-2-carbonyl]-2,5-diazaspiro[3.4]octan-6-one]",2.27 nM
19,"O=C1NC2(CO1)CN(C(=O)N1CC3(CCN(Cc4ccc(S(=O)(=O)C(F)(F)F)cc4)CC3)C1)C2 [Example 84, 2-[7-(4-triflylbenzyl)-2,7-diazaspiro[3.5]nonane-2-carbonyl]-7-oxa-2,5-diazaspiro[3.4]octan-6-one]",0.99 nM
20,"O=C1NC2(CO1)CN(C(=O)N1CC3(CCN(Cc4ccc(C(F)(F)F)cn4)CC3)C1)C2 [Example 149, 2-[7-[[5-(trifluoromethyl)-2-pyridyl]methyl]-2,7-diazaspiro[3.5]nonane-2-carbonyl]-7-oxa-2,5-diazaspiro[3.4]octan-6-one]",1.68 nM

# More lines, now with the values ahead:
row,IC50,SMILES
1,16.1 nM,"O=C1CCC2(CN(C(=O)N3CC4(CC(Cc5cc(C(F)(F)F)c[nH]c5=O)C4)C3)C2)N1 [Example 329, 2-[6-[[2-keto-5-(trifluoromethyl)-1H-pyridin-3-yl]methyl]-2-azaspiro[3.3]heptane-2-carbonyl]-2,5-diazaspiro[3.4]octan-6-one]"
2,9.81 nM,"O=C1CCC2(CN(C(=O)N3CC4(CC(NS(=O)(=O)c5cccc(C(F)(F)F)c5)C4)C3)C2)N1 [Example 55, N-[2-(6-keto-2,5-diazaspiro[3.4]octane-2-carbonyl)-2-azaspiro[3.3]heptan-6-yl]-3-(trifluoromethyl)benzen esulfonamide]"
3,9.04 nM,"O=C1COCC2(CN(C(=O)N3CC4(CC(Cc5ncc(F)cc5F)C4)C3)C2)N1 [Example 371, 2-[6-[(3,5-difluoro-2-pyridyl)methyl]-2-azaspiro[3.3]heptane-2-carbonyl]-8-oxa-2,5-diazaspiro[3.5]nonan-6-one]"
4,8.91 nM,"N=[S@@](=O)(c1ccc(CC2CC3(C2)CN(C(=O)N2CC4(COCC(=O)N4)C2)C3)cc1)C(F)(F)F [Example 288, 2-[6-[[4-(trifluoromethylsulfoni-midoyl)phenyl]methyl]-2-azaspiro[3.3]heptane-2-carbonyl]-8-oxa-2,5-diazaspiro[3.5]nonan-6-one]"
5,7.35 nM,"O=C1COCC2(CN(C(=O)N3CC4(CC[C@H](Cc5ccc(S(=O)(=O)C(F)(F)F)cc5)C4)C3)C2)N1 [Example 235, 2-[(6R)-6-[[4-(trifluoromethylsulfonyl)phenyl]methyl]-2-azaspiro[3.4]octane-2-carbonyl]-8-oxa-2,5-diazaspiro[3.5]nonan-6-one]"
6,3.15 nM,"O=C1COCC2(CN(C(=O)N3CC4(CC[C@H](Cc5cccc(S(=O)(=O)C(F)(F)F)c5)C4)C3)C2)N1 [Example 237, 2-[(6R)-6-[[3-(trifluoromethylsulfonyl)phenyl]methyl]-2-azaspiro[3.4]octane-2-carbonyl]-8-oxa-2,5-diazaspiro[3.5]nonan-6-one]"
7,2.16 nM,"O=C1CCC2(CN(C(=O)N3CC4(CC(Cn5ccc(C(F)(F)F)cc5=O)C4)C3)C2)N1 [Example 249, 2-[6-[[2-oxo-4-(trifluoromethyl)-1-pyridyl]methyl]-2-azaspiro[3.3]heptane-2-carbonyl]-2,5-diazaspiro[3.4]octan-6-one]"
8,2.15 nM,"N=S(=O)(c1ccc(CC2CC3(C2)CN(C(=O)N2CC4(CCC(=O)N4)C2)C3)cc1)C(F)(F)F (centres unmarked) [Example 2, 2-[6-[4-(trifluoromethylsulfoni-midoyl)benzyl]-2-azaspiro[3.3]heptane-2-carbonyl]-2,5-diazaspiro[3.4]octan-6-one]"
9,1.88 nM,"CN(c1cnc(C(F)(F)F)cn1)C1CCC2(CC1)CN(C(=O)N1CC3(COC(=O)N3)C1)C2 [Example 96, 2-[7-[methyl-[5-(trifluoromethyl)pyrazin-2-yl]amino]-2-azaspiro[3.5]nonane-2-carbonyl]-7-oxa-2,5-diazaspiro[3.4]octan-6-one]"
10,0.87 nM,"CS(=O)(=O)c1cccc(CC2CC3(C2)CN(C(=O)N2CC4(COC(=O)N4)C2)C3)c1 [Example 33, 2-[6-(3-mesylbenzyl)-2-azaspiro[3.3]heptane-2-carbonyl]-7-oxa-2,5-diazaspiro[3.4]octan-6-one]"
11,0.44 nM,"N=[S@@](=O)(c1cccc(CC2CC3(C2)CN(C(=O)N2CC4(CCC(=O)N4)C2)C3)c1)C(F)(F)F [Example 289, 2-[6-[[3-(trifluoromethylsulfoni-midoyl)phenyl]methyl]-2-azaspiro[3.3]heptane-2-carbonyl]-2,5-diazaspiro[3.4]octan-6-one]"

# Same assay, conditions: unit nM
row,IC50,SMILES
1,< 5 nM,"O=C1NC2(CO1)CN(C(=O)N1CC3(CC(Cc4ccc(F)cc4F)C3)C1)C2 [Example 23, 2-[6-(2,4-difluorobenzyl)-2-azaspiro[3.3]heptane-2-carbonyl]-7-oxa-2,5-diazaspiro[3.4]octan-6-one]"
